Laboratory results reported in patent US5543396A, “Proline phosphonate derivatives” (priority 1994, dated 1996).

Experiments:
[1] = Half-lives for spontaneous hydrolysis of inhibitors in buffer; type: physicochemical; conditions: 0.05 M Tris, pH 7.8 buffer, 8% Me2SO, 23° C.
Description: Determination of Half-Lives for Spontaneous Hydrolysis of Inhibitors in Buffer. […] The spontaneous hydrolysis was monitored by following the increase in absorbance at 270 nm for phosphonates with phenoxy groups, at 280 nm for compounds with 4-.chlorophenoxy groups or at 277 nm for the 4-fluorophenoxy derivative. Half-lives were obtained from first-order plots of ln (Af -At) vs time, where At is the absorbance of the mixture at time t, and Af is the final absorbance of phosphonate monophenyl ester and phenol (or corresponding compounds). This was obtained from the absorbance of the solution which had remained constant for a few hours. All the plots gave correlation coefficients of 0.95 or greater.

Human Placenta DPP-IV = target: T1, Human Placenta DPP-IV (Homo sapiens, UniProt P27487); experiment: Inhibition of DPP-IV by peptidyl phosphonates, incubation method; type: biochemical; conditions: for % Inhibition 2 min / % Inhibition 30 min: [I] 0.12 mM, 0.05 M Tris pH 7.8, 5% Me2SO, substrate TFA.Ala-Pro-AFC 0.190 mM; for % Inhibition 2 min / % Inhibition 30 min / kobs /[I] for DPP-IV: 23° C.; for kobs /[I] for DPP-IV: [I] 0.42 mM, 0.05 M Tris pH 7.8, 8% Me2SO, substrate TFA.Ala-Pro-AFC 0.2 mM; for inhibition of DPP-IV, in words: inhibitor 0.12 mM
T1 construct: from tissue; host or cells: human placenta
Procedure: Standard Assay of DPP-IV. DPP-IV was assayed in 450 μL of 50 mM Tris, pH 7.8, 0.2 mM Ala-Pro-AFC (freshly diluted from a 20 mM stock in DMF), and 5 μL of enzyme solution at 30° C. or in 2 mL of buffer, 0.2 mM Ala-Pro-AFC (diluted from 8 mM stock in Me2 SO) at 23° C. Fluorescence was measured at 400 nm excitation and 505 nm emission. One unit of DPP-IV is defined as the amount of enzyme that will hydrolyze 1.0 μmole of Ala-Pro-AFC per min at 25° C. and pH 7.8.
Enzyme Irreversible Inactivation--Incubation Method. An aliquot of inhibitor (25 or 50 μL) in Me2 SO was added to 0.28-0.55 mL of a buffered enzyme solution (0.83 munits for DPP-IV; 2.1 units for acetylcholinesterase; 0.07-4.5 μM for other enzymes) to initiate the inactivation reaction. Aliquots (20-250 μL) were withdrawn at various intervals and the residual enzymatic activity was measured at 23° C. as described below. The buffers were: 0.05M Tris, pH 7.8 for DPP-IV; 0.1M Hepes, 0.01M CaCl2, pH 7.5 for bovine trypsin; 0.1M Hepes, 0.5M NaCl, pH 7.5 for bovine chymotrypsin, PPE, and HLE; 0.1M phosphate, pH 7.5 for acetylcholinesterase; 50 mM Tris-HCl, 2 mM EDTA, 5 mM cysteine, (freshly prepared) pH 7.5 buffer for papain and 100 mM KH2 PO4, 1.33 mM EDTA, 2.7 mM cysteine (freshly prepared), pH 6.0 buffer for cathepsin B. […] The inhibitor concentrations are shown in the appropriate table. Stock solutions of substrates were prepared in Me2 SO and stored at -20° C. DPP-IV was assayed with TFA.Ala-Pro-AFC. Papain and cathepsin B were assayed with Bz-Arg-AMC and Z-Arg-Arg-AMC, respectively. The release of AMC were followed fluorometrically (excitation at 380 nm and emmision at 460 nm for AMC). Acetylcholinesterase was assayed with acetylthiocholine iodide in the presence of DTNB at 412 nm. Trypsin was assayed with Z-Phe-Gly-Arg-.rho.NA.HCl (0.09 mM), chymotrypsin was assayed with Suc-Phe-Thr-Phe-.rho.NA (0.48 mM), PPE and HLE were assayed with Suc-Ala-Ala-Ala-.rho.NA (0.44 mM) and MeO-Suc-Ala-Ala-Pro-Val-.rho.NA (0.24 mM), respectively. Peptide .rho.-nitroanilide hydrolysis was measured at 410 nm (ε410 =8,800 M ^1 cm^-1). Pseudo first-order inactivation rate constants (kobs) were obtained from plots of In vt /vo vs time, and the correlation coefficients were greater than 0.98.

DPP-IV = DPP-IV (Homo sapiens, UniProt P27487); experiment: Stability of inhibited DPP-IV; conditions: for recovery of enzyme activity of inhibited DPP-IV: after 24 h, excess inhibitor removed by centrifugation; for DPP-IV enzyme activity found after incubation with inhibitor: inhibitor 0.042-0.42 mM, pH 7.8 buffer, incubation for 1 h
Procedure: Excess inhibitors in the inhibited enzyme solution were removed by centrifugation of the diluted enzyme solution twice using Amicon microconcentrators.
Stability of Inhibited DPP-IV. […] Excess inhibitors was removed from diluted solutions of inactivated enzyme by centrifugation three times at 0° C. for 1 h each in Amicon Centricon-10 microconcentrators following addition of buffer. The enzyme activity of solution was assayed at various intervals as described above.

Chymotrypsin = Chymotrypsin (Bos taurus, UniProt P00766); experiment: Inhibition of chymotrypsin, incubation method; type: biochemical, bovine
Procedure: Inactivation rates of serine proteases by aryl diesters of peptidyl derivatives of α-aminoalkylphosphonates were measured by the incubation method. An aliquot of inhibitor (25 or 50 μl) in Me2 SO was added to a buffered enzyme solution (0.01-2.3 μM) to initiate the inactivation. Aliquots (50 μl) were withdrawn at various intervals and the residual enzymatic activity was measured. Me2 SO concentration in the reaction mixture was 8-12% (v/v). A 0.1M HEPES, 0.01M CaCl2, pH 7.5 buffer was utilized for trypsin and trypsin-like enzymes. A 0.1M HEPES, 0.5M NaCl, pH 7.5, was utilized for the other serine proteases. Peptide thioesters or peptide nitroanilides with the appropriate sequences were used as substrates for various serine proteases. All peptide thioesters hydrolysis rates were measured with the assay mixture containing 4,4'-dithiodipyridine (ε324 =19800M^-1 cm^-1). Peptide 4-nitroanilide hydrolysis was measured at 410 nm (ε410 =8800 M ^-1 cm^-1). First order inactivation rate constants (kobs) were obtained from plots of ln vt /vo vs time, and the correlation coefficients were greater then 0.98.
Enzyme Irreversible Inactivation--Incubation Method. An aliquot of inhibitor (25 or 50 μL) in Me2 SO was added to 0.28-0.55 mL of a buffered enzyme solution (0.83 munits for DPP-IV; 2.1 units for acetylcholinesterase; 0.07-4.5 μM for other enzymes) to initiate the inactivation reaction. Aliquots (20-250 μL) were withdrawn at various intervals and the residual enzymatic activity was measured at 23° C. as described below. The buffers were: 0.05M Tris, pH 7.8 for DPP-IV; 0.1M Hepes, 0.01M CaCl2, pH 7.5 for bovine trypsin; 0.1M Hepes, 0.5M NaCl, pH 7.5 for bovine chymotrypsin, PPE, and HLE; 0.1M phosphate, pH 7.5 for acetylcholinesterase; 50 mM Tris-HCl, 2 mM EDTA, 5 mM cysteine, (freshly prepared) pH 7.5 buffer for papain and 100 mM KH2 PO4, 1.33 mM EDTA, 2.7 mM cysteine (freshly prepared), pH 6.0 buffer for cathepsin B. The Me2 SO concentration in the reaction mixtures was 8-9% (v/v). The inhibitor concentrations are shown in the appropriate table. Stock solutions of substrates were prepared in Me2 SO and stored at -20° C. DPP-IV was assayed with TFA.Ala-Pro-AFC. Papain and cathepsin B were assayed with Bz-Arg-AMC and Z-Arg-Arg-AMC, respectively. The release of AMC were followed fluorometrically (excitation at 380 nm and emmision at 460 nm for AMC). Acetylcholinesterase was assayed with acetylthiocholine iodide in the presence of DTNB at 412 nm. Trypsin was assayed with Z-Phe-Gly-Arg-.rho.NA.HCl (0.09 mM), chymotrypsin was assayed with Suc-Phe-Thr-Phe-.rho.NA (0.48 mM), PPE and HLE were assayed with Suc-Ala-Ala-Ala-.rho.NA (0.44 mM) and MeO-Suc-Ala-Ala-Pro-Val-.rho.NA (0.24 mM), respectively. Peptide .rho.-nitroanilide hydrolysis was measured at 410 nm (ε410 =8,800 M ^1 cm^-1). […]

Sequence of DPP-IV (P27487 whole entry): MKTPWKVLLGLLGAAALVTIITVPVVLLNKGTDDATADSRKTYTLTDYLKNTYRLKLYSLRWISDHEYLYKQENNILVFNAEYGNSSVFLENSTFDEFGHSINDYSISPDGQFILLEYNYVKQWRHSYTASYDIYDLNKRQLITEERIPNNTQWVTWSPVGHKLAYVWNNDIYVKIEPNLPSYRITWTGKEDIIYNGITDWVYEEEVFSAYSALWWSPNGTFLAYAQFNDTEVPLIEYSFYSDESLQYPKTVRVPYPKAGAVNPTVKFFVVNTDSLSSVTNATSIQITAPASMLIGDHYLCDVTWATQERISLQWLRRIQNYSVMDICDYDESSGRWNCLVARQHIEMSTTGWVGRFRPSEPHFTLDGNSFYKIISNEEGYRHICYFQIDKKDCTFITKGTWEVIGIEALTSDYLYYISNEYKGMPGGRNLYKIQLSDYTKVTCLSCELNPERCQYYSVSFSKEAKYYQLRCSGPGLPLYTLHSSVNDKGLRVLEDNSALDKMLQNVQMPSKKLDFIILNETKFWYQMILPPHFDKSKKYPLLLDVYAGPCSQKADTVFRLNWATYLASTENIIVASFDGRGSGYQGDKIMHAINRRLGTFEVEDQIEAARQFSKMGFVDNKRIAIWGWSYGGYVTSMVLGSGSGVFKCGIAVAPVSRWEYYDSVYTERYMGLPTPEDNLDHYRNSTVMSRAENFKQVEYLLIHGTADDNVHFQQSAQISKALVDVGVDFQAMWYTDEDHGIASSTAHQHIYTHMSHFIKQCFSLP
T1 sequence (P27487 whole entry): as above

Structure (SMILES): Br.Br.NCCCC[C@H](N)C(=O)N1CCCC1P(=O)(Oc1ccccc1)Oc1ccccc1 (stereo partly drawn) [Compound 10, Diphenyl Lysylpyrrolidine-2-phosphonate Dihydrobromide]
- t1/2, half-life for hydrolysis [1]: 52 h
- % Inhibition 2 min (Human Placenta DPP-IV; 2 min incubation): 0%
- % Inhibition 30 min (Human Placenta DPP-IV; 30 min incubation): 0%
- kobs /[I] for DPP-IV (Human Placenta DPP-IV): 1.7 M⁻¹ s⁻¹
- inhibition of DPP-IV, in words (Human Placenta DPP-IV; 30 min incubation): did not show any inhibition

Structure (SMILES): C[C@H](N)C(=O)N1CCCC1P(=O)(Oc1ccc(Cl)cc1)Oc1ccc(Cl)cc1.Cl (stereo partly drawn) [Compound 12, Di(4-chlorophenyl) Alanylpyrrolidine-2-phosphonate Hydrochloride]
- t1/2, half-life for hydrolysis [1]: 5.3 h
- % Inhibition 2 min (Human Placenta DPP-IV; 2 min incubation): 0%
- % Inhibition 30 min (Human Placenta DPP-IV; 30 min incubation): 100%
- kobs /[I] for DPP-IV (Human Placenta DPP-IV): 28 M⁻¹ s⁻¹
- inhibition of DPP-IV, in words (Human Placenta DPP-IV; 30 min incubation): showed some inhibitory potency
- recovery of enzyme activity of inhibited DPP-IV (DPP-IV): did not regain enzyme activity
- inhibition of chymotrypsin, in words (Chymotrypsin): very slowly
- kobs /[I] Chymotrypsin (Chymotrypsin; [I] 0.42 mM, 0.1 M Hepes, 0.5 M NaCl, pH 7.5, 8-9% Me2SO, 23° C., Suc-Phe-Thr-Phe-pNA 0.48 mM): 26 M⁻¹ s⁻¹

Structure (SMILES): CC(=O)O.C[C@H](N)C(=O)N1CCCCC1P(=O)(Oc1ccccc1)Oc1ccccc1 (stereo partly drawn) [Compound 7, Diphenyl Alanylpiperidine-2-phosphonate Acetate]
- t1/2, half-life for hydrolysis [1]: > 72 h
- % Inhibition 2 min (Human Placenta DPP-IV; 2 min incubation): 0%
- % Inhibition 30 min (Human Placenta DPP-IV; 30 min incubation): 100%
- kobs /[I] for DPP-IV (Human Placenta DPP-IV): 12.6 M⁻¹ s⁻¹
- inhibition of DPP-IV, in words (Human Placenta DPP-IV; 30 min incubation): showed some inhibitory potency
- recovery of enzyme activity of inhibited DPP-IV (DPP-IV): did not regain enzyme activity
- DPP-IV enzyme activity found after incubation with inhibitor (DPP-IV): no enzyme activity

Structure (SMILES): CC(=O)O.C[C@H](N)C(=O)N1CCCCC1P(=O)(O)Oc1ccccc1 (stereo partly drawn) [Compound 8, Monophenyl Alanylpiperidine-2-phosphonate Acetate]
- % Inhibition 2 min (Human Placenta DPP-IV; 2 min incubation): 0%
- % Inhibition 30 min (Human Placenta DPP-IV; 30 min incubation): 0%
- inhibition of DPP-IV, in words (Human Placenta DPP-IV; 30 min incubation): did not show any inhibition

Structure (SMILES): Br.N[C@@H](Cc1ccccc1)C(=O)N1CCCC1P(=O)(Oc1ccccc1)Oc1ccccc1 (stereo partly drawn) [Compound 9, Diphenyl Phenylalanylpyrrolidine-2-phosphonate Hydrobromide]
- % Inhibition 2 min (Human Placenta DPP-IV; 2 min incubation): 0%
- % Inhibition 30 min (Human Placenta DPP-IV; 30 min incubation): 0%
- inhibition of DPP-IV, in words (Human Placenta DPP-IV; 30 min incubation): did not show any inhibition

Structure (SMILES): Cl.Cl.NCCCC[C@H](N)C(=O)N1CCCCC1P(=O)(Oc1ccccc1)Oc1ccccc1 (stereo partly drawn) [Compound 11, Diphenyl Lysylpiperidine-2-phosphonate Dihydrochloride]
- t1/2, half-life for hydrolysis [1]: > 48 h
- % Inhibition 2 min (Human Placenta DPP-IV; 2 min incubation): 35%
- % Inhibition 30 min (Human Placenta DPP-IV; 30 min incubation): 88%
- kobs /[I] for DPP-IV (Human Placenta DPP-IV): 4.2 M⁻¹ s⁻¹
- inhibition of DPP-IV, in words (Human Placenta DPP-IV; 2 min incubation): effectively inhibited
- inhibition of DPP-IV, in words (Human Placenta DPP-IV; 30 min incubation): showed some inhibitory potency

Structure (SMILES): C[C@H](N)C(=O)N1CCCC1P(=O)(Oc1ccccc1)Oc1ccccc1.Cl (stereo partly drawn) [Compound 6, Diphenyl Alanylpyrrolidine-2-phosphonate Hydrochloride]
- t1/2, half-life for hydrolysis [1]: 23.1 h
- % Inhibition 2 min (Human Placenta DPP-IV; 2 min incubation): 0%
- % Inhibition 30 min (Human Placenta DPP-IV; 30 min incubation): 33%
- kobs /[I] for DPP-IV (Human Placenta DPP-IV): 1.2 M⁻¹ s⁻¹
- inhibition of DPP-IV, in words (Human Placenta DPP-IV; 30 min incubation): showed some inhibitory potency
- recovery of enzyme activity of inhibited DPP-IV (DPP-IV): did not regain enzyme activity
- DPP-IV enzyme activity found after incubation with inhibitor (DPP-IV): 30%

Structure (SMILES): C[C@H](N)C(=O)N1CCCCC1P(=O)(Oc1ccc(F)cc1)Oc1ccc(F)cc1.Cl (stereo partly drawn) [Compound 14, Di(4-fluorophenyl) Alanyl-piperidine-2-phosphonate Hydrochloride]
- t1/2, half-life for hydrolysis [1]: > 68 h
- kobs /[I] for DPP-IV (Human Placenta DPP-IV): 12 M⁻¹ s⁻¹
- DPP-IV enzyme activity found after incubation with inhibitor (DPP-IV): no enzyme activity
